Experimental data from ChEMBL document CHEMBL1123539, “[p-[(Thienylcarbonyl)amino]phenoxy]propanolamines derivatives as diuretic and beta-adrenergic receptor blocking agents” (1986).
Values belong to the molecule of their own block, whether it stands above or below them.

What was measured:
[1] = target: Beta-2 adrenergic receptor (Canis lupus familiaris) (UniProt P54833)
Description: The compound was tested for beta-2 adrenergic receptor blocking activity in dogs

Rattus norvegicus [2] = assay: Compound was tested for oral salidiuretic activity (control/drug treatment value) in rats expressed in Na+, mequiv/6 hr at a dose of 32 mg/kg; 0.177/0.305; format: functional, Urine
[3] = target: Beta-1 adrenergic receptor (Homo sapiens) (UniProt P08588); conditions: Canis lupus familiaris
Beta-1 adrenergic receptor (Homo sapiens), sequence (P08588 whole entry, looked up): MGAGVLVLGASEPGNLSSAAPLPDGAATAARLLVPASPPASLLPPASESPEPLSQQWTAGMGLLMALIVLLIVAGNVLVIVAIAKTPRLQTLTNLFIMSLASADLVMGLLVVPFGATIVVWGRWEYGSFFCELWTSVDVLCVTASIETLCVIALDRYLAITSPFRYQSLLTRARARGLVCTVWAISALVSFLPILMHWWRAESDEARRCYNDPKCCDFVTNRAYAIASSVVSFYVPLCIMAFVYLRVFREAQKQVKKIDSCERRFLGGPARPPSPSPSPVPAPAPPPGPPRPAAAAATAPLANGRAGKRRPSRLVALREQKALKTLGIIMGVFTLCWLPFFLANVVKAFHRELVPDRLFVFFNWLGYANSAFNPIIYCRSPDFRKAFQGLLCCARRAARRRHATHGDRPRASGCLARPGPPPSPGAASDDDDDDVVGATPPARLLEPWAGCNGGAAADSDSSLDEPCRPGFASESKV
Description: Compound was tested for beta-1 adrenergic receptor blocking activity in dogs

Rattus norvegicus [4] = assay: Compound was tested for oral salidiuretic activity (control/drug treatment value) in rats expressed as urinary output. at a dose of 32 mg/kg; 7.87/8.10; format: functional, Urine
Rattus norvegicus [5] = assay: Compound was tested for oral salidiuretic activity (control/drug treatment value) in rats expressed as urinary output. at a dose of 128 mg/kg; 7.33/13.83; format: functional, Urine
Rattus norvegicus [6] = assay: Compound was tested for oral salidiuretic activity (control/drug treatment value) in rats expressed in Na+, mequiv/6 hr at a dose of 128 mg/kg; 0.201/1.197; format: functional, Urine
Rattus norvegicus [7] = assay: Compound was tested for oral salidiuretic activity (control/drug treatment value) in rats expressed in Na+, mequiv/6 hr at a dose of 128 mg/kg; 0.144/0.470; format: functional, Urine
Rattus norvegicus [8] = assay: Compound was tested for oral salidiuretic activity (control/drug treatment value) in rats expressed as urinary output. at a dose of 128 mg/kg; 6.50/8.47; format: functional, Urine
Rattus norvegicus [9] = assay: Compound was tested for oral salidiuretic activity (control/drug treatment value) in rats expressed as urinary output. at a dose of 128 mg/kg; 8.42/6.25; format: functional, Urine
Rattus norvegicus [10] = assay: Compound was tested for oral salidiuretic activity (control/drug treatment value) in rats expressed in Na+, mequiv/6 hr at a dose of 128 mg/kg; 0.186/0.179; format: functional, Urine
Rattus norvegicus [11] = assay: Compound was tested for oral salidiuretic activity (control/drug treatment value) in rats expressed as urinary output. at a dose of 32 mg/kg; 10.33/10.08; format: functional, Urine
Rattus norvegicus [12] = assay: Compound was tested for oral salidiuretic activity (control/drug treatment value) in rats expressed in Na+, mequiv/6 hr at a dose of 32 mg/kg; 0.140/0.417; format: functional, Urine
Rattus norvegicus [13] = assay: Compound was tested for oral salidiuretic activity (control/drug treatment value) in rats expressed in Na+, mequiv/6 hr at a dose of 128 mg/kg; 0.163/0.133; format: functional, Urine
Rattus norvegicus [14] = assay: Compound was tested for oral salidiuretic activity (control/drug treatment value) in rats expressed as urinary output. at a dose of 128 mg/kg; 8.72/8.02; format: functional, Urine
Rattus norvegicus [15] = assay: Compound was tested for oral salidiuretic activity (control/drug treatment value) in rats expressed as urinary output. at a dose of 64 mg/kg; 10.33/9.33; format: functional, Urine
Rattus norvegicus [16] = assay: Compound was tested for oral salidiuretic activity (control/drug treatment value) in rats expressed in Na+, mequiv/6 hr at a dose of 64 mg/kg; 0.140/0.355; format: functional, Urine
Rattus norvegicus [17] = assay: Compound was tested for oral salidiuretic activity (control/drug treatment value) in rats expressed as urinary output. at a dose of 128 mg/kg; 7.67/6.97; format: functional, Urine
Rattus norvegicus [18] = assay: Compound was tested for oral salidiuretic activity (control/drug treatment value) in rats expressed in Na+, mequiv/6 hr at a dose of 128 mg/kg; 0.310/0.148; format: functional, Urine
Rattus norvegicus [19] = assay: Compound was tested for oral salidiuretic activity (control/drug treatment value) in rats expressed in Na+, mequiv/6 hr at a dose of 128 mg/kg; 0.198/0.885; format: functional, Urine
Rattus norvegicus [20] = assay: Compound was tested for oral salidiuretic activity (control/drug treatment value) in rats expressed as urinary output. at a dose of 128 mg/kg; 8.17/12.83; format: functional, Urine
Rattus norvegicus [21] = assay: Compound was tested for oral salidiuretic activity (control/drug treatment value) in rats expressed in Na+, mequiv/6 hr at a dose of 128 mg/kg; 0.186/0.243; format: functional, Urine
Rattus norvegicus [22] = assay: Compound was tested for oral salidiuretic activity (control/drug treatment value) in rats expressed as urinary output. at a dose of 128 mg/kg; 8.42/6.75; format: functional, Urine
Rattus norvegicus [23] = assay: Compound was tested for oral salidiuretic activity (control/drug treatment value) in rats expressed as urinary output. at a dose of 128 mg/kg; 8.72/8.15; format: functional, Urine
Rattus norvegicus [24] = assay: Compound was tested for oral salidiuretic activity (control/drug treatment value) in rats expressed in Na+, mequiv/6 hr at a dose of 128 mg/kg; 0.163/0.139; format: functional, Urine
Rattus norvegicus [25] = assay: Compound was tested for oral salidiuretic activity (control/drug treatment value) in rats expressed as urinary output. at a dose of 128 mg/kg; 7.33/10.83; format: functional, Urine
Rattus norvegicus [26] = assay: Compound was tested for oral salidiuretic activity (control/drug treatment value) in rats expressed in Na+, mequiv/6 h at a dose of 128 mg/kg; 0.210/0.796; format: functional, Urine
Rattus norvegicus [27] = assay: Compound was tested for oral salidiuretic activity (control/drug treatment value) in rats expressed in Na+, mequiv/6 h at a dose of 128 mg/kg; 0.205/0.712; format: functional, Urine
Rattus norvegicus [28] = assay: Compound was tested for oral salidiuretic activity (control/drug treatment value) in rats expressed as urinary output. at a dose of 32 mg/kg; 7.33/9.17; format: functional, Urine
Rattus norvegicus [29] = assay: Compound was tested for oral salidiuretic activity (control/drug treatment value) in rats expressed in Na+, mequiv/6 h at a dose of 64 mg/kg; 0.205/0.514; format: functional, Urine
Rattus norvegicus [30] = assay: Compound was tested for oral salidiuretic activity (control/drug treatment value) in rats expressed in Na+, mequiv/6 hr at a dose of 16 mg/kg; 0.205/0.350; format: functional, Urine
Rattus norvegicus [31] = assay: Compound was tested for oral salidiuretic activity (control/drug treatment value) in rats expressed as urinary output. at a dose of 16 mg/kg; 7.33/9.75; format: functional, Urine
Rattus norvegicus [32] = assay: Compound was tested for oral salidiuretic activity (control/drug treatment value) in rats expressed in Na+, mequiv/6 hr at a dose of 32 mg/kg; 0.205/0.358; format: functional, Urine
Rattus norvegicus [33] = assay: Compound was tested for oral salidiuretic activity (control/drug treatment value) in rats expressed as urinary output. at a dose of 128 mg/kg; 7.33/11.50; format: functional, Urine
Rattus norvegicus [34] = assay: Compound was tested for oral salidiuretic activity (control/drug treatment value) in rats expressed as urinary output. at a dose of 64 mg/kg; 7.33/10; format: functional, Urine
Rattus norvegicus [35] = assay: Compound was tested for oral salidiuretic activity (control/drug treatment value) in rats expressed in Na+, mequiv/6 h at a dose of 128 mg/kg; 0.102/0.380; format: functional, Urine

Beta-2 adrenergic receptor (Canis lupus familiaris), sequence (P54833 whole entry, looked up): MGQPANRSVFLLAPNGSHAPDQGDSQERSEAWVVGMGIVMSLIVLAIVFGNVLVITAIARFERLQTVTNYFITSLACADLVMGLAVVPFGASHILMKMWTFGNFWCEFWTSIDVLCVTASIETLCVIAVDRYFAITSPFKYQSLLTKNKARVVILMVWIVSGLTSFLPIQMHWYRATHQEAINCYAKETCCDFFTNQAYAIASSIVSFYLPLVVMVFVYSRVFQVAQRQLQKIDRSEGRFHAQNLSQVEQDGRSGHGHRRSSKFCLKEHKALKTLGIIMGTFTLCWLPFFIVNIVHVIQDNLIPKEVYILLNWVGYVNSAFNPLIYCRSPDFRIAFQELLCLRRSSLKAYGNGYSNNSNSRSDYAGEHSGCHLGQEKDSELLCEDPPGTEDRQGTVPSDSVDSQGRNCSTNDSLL

- ID50 [1]: > 1 mg/kg
- ID50 [3]: 0.022 mg/kg
Compound: CC(=O)c1cc(NC(=O)c2cccs2)ccc1OCC(O)CNC(C)(C)C (configuration not stated)
- Activity (Rattus norvegicus [2]): 0.177
- Activity (Rattus norvegicus [4]): 7.87 mL

- ID50 [1]: > 1 mg/kg
- ID50 [3]: 0.32 mg/kg
Compound: CC(C)OC(=O)c1cc(NC(=O)c2cccs2)ccc1OCC(O)CNC(C)(C)C (configuration not stated)
- Activity (Rattus norvegicus [5]): 7.33 mL
- Activity (Rattus norvegicus [6]): 0.21

- ID50 [1]: > 1 mg/kg
- ID50 [3]: 0.19 mg/kg
Compound: CCOC(=O)c1cc(NC(=O)c2ccsc2)ccc1OCC(O)CNC(C)C (configuration not stated)
- Activity (Rattus norvegicus [7]): 0.144
- treated urinary output (Rattus norvegicus [8]): 8.47 mL

- ID50 [1]: 0.6 mg/kg
- ID50 [3]: 0.004 mg/kg
Compound: CCOC(=O)c1cc(NC(=O)Cc2cccs2)ccc1OCC(O)CNC(C)(C)C (configuration not stated)
- Activity (Rattus norvegicus [9]): 8.42 mL
- Activity (Rattus norvegicus [10]): 0.186

- ID50 [1]: > 1 mg/kg
- ID50 [3]: 0.17 mg/kg
Compound: CC(C)NCC(O)COc1ccc(NC(=O)c2cccs2)cc1Cl (configuration not stated)
- Activity (Rattus norvegicus [11]): 10.33 mL
- Activity (Rattus norvegicus [12]): 0.14

- ID50 [1]: > 1 mg/kg
- ID50 [3]: 0.02 mg/kg
Compound: CCOC(=O)c1cc(NC(=O)Cc2ccsc2)ccc1OCC(O)CNC(C)C (configuration not stated)
- Activity (Rattus norvegicus [13]): 0.163
- Activity (Rattus norvegicus [14]): 8.72 mL

- ID50 [1]: 0.4 mg/kg
- ID50 [3]: 0.014 mg/kg
Compound: CC(C)(C)NCC(O)COc1ccc(NC(=O)c2cccs2)cc1Cl (configuration not stated)
- Activity (Rattus norvegicus [15]): 10.33 mL
- Activity (Rattus norvegicus [16]): 0.14

- ID50 [1]: > 1 mg/kg
- ID50 [3]: 0.12 mg/kg
Compound: CC(C)(C)NCC(O)COc1ccc(NC(=O)c2cccs2)cc1C(N)=O (configuration not stated)
- Activity (Rattus norvegicus [17]): 7.67 mL
- Activity (Rattus norvegicus [18]): 0.301

- ID50 [1]: > 1 mg/kg
- ID50 [3]: 0.25 mg/kg
Compound: COC(=O)c1cc(NC(=O)c2cccs2)ccc1OCC(O)CNC(C)C (configuration not stated)
- Activity (Rattus norvegicus [19]): 0.198
- Activity (Rattus norvegicus [20]): 8.17 mL

- ID50 [1]: 0.38 mg/kg
- ID50 [3]: 0.015 mg/kg
Compound: CCOC(=O)c1cc(NC(=O)Cc2ccsc2)ccc1OCC(O)CNC(C)(C)C (configuration not stated)
- Activity (Rattus norvegicus [21]): 0.186
- Activity (Rattus norvegicus [22]): 8.42 mL

Compound: CCOC(=O)c1cc(NC(=O)Cc2cccs2)ccc1OCC(O)CNC(C)C (configuration not stated)
- treated urinary output (Rattus norvegicus [23]): 8.15 mL
- Activity (Rattus norvegicus [24]): 0.163

Compound: CCCOC(=O)c1cc(NC(=O)c2cccs2)ccc1OCC(O)CNC(C)C (configuration not stated)
- Activity (Rattus norvegicus [25]): 7.33 mL
- Activity (Rattus norvegicus [26]): 0.21

- ID50 [1]: 0.45 mg/kg
- ID50 [3]: 0.3 mg/kg
Compound: CCOC(=O)c1cc(NC(=O)c2cccs2)ccc1OCC(O)CNC(C)C (configuration not stated)
- Activity (Rattus norvegicus [27]): 0.205
- Activity (Rattus norvegicus [28]): 7.33 mL
- Activity (Rattus norvegicus [29]): 0.205
- Activity (Rattus norvegicus [30]): 0.205
- Activity (Rattus norvegicus [31]): 7.33 mL
- Activity (Rattus norvegicus [32]): 0.205
- Activity (Rattus norvegicus [33]): 7.33 mL
- Activity (Rattus norvegicus [34]): 7.33 mL

- ID50 [1]: 0.55 mg/kg
- ID50 [3]: 0.022 mg/kg
Compound: CC(C)(C)NCC(O)COc1ccc(NC(=O)c2cccs2)cc1C#N (configuration not stated)
- Activity (Rattus norvegicus [35]): 0.102
